IC50 data for 21 compounds are collected here from patent US20240217978A1 (CHONG KUN DANG PHARMACEUTICAL CORP., priority 2021, published 2024).

pIC50: −log10 of the molar value.

Sequence of human adenosine A2a receptor (P29274 whole entry): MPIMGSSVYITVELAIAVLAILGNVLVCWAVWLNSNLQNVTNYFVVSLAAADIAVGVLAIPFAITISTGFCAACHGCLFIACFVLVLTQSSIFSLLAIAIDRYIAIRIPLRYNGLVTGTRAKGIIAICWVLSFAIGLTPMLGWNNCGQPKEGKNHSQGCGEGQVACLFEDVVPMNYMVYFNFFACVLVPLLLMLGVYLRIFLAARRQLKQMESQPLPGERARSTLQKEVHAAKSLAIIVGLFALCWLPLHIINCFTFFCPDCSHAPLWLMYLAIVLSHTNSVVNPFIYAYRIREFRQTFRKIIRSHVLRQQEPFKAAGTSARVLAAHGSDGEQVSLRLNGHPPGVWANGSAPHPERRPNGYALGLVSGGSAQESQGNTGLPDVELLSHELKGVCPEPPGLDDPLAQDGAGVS

This assay has as its target human adenosine A2a receptor (Homo sapiens (Human), UniProt P29274). Kind of assay: A2a receptor binding affinity, [3H]-NECA radioligand binding test. The conditions noted are these: [3H]-NECA 37 nM; membrane from HEK-293 cells transfected with human adenosine A2a receptor. The method, boiled down: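 Membranes from HEK-293 cells expressing human A2a receptor were incubated with [3H]-NECA (final 37 nM) and compound for 1 h at room temperature in 50 mM Tris, 10 mM MgCl2, 1 mM EDTA, pH 7.4. Bound ligand was filtered on PEI-coated plates and counted by scintillation to derive IC50 (μM).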
`CC(C)(F)CN1CCN(C(=O)[C@@H]2CCN2c2nc(N)n3nc(-c4ccco4)nc3n2)CC1` [Example 108, (S)-(1-(7-amino-2-(furan-2-yl)-[1,2,4]triazolo[1,5-a][1,3,5]triazin-5-yl)azetidin-2-yl)(4-(2-fluoro-2-methylpropyl)piperazin-1-yl)methanone] had a negative-log IC50 (pIC50) of 8.05.
`Nc1nc(N2CC[C@H]2C(=O)N2CCN(C(=O)c3ccccc3)CC2)nc2nc(-c3ccco3)nn12` [Example 109, (S)-(1-(7-amino-2-(furan-2-yl)-[1,2,4]triazolo[1,5-a][1,3,5]triazin-5-yl)azetidin-2-yl)(4-benzoylpiperazin-1-yl)methanone]: the negative logarithm of the IC50 (pIC50) is 7.89. The pIC50 values of the last two compounds are within 0.2 log units of each other.
In the case of `Nc1nc(N2CC[C@H]2C(=O)N2CCN(C(=O)Nc3ccccc3)CC2)nc2nc(-c3ccco3)nn12` [Example 110, (S)-4-(1-(7-amino-2-(furan-2-yl)-[1,2,4]triazolo[1,5-a][1,3,5]triazine-5-yl)azetidin-2-carbonyl)-N-phenylpiperazin-1-carboxamide], the pIC50 is 7.92.
The compound `CCCCN1CCN(C(=O)[C@@H]2CCN2c2nc(N)n3nc(-c4ccco4)nc3n2)CC1` [Example 111, (S)-(1-(7-amino-2-(furan-2-yl)-[1,2,4]triazolo[1,5-a][1,3,5]triazin-5-yl)azetidin-2-yl)(4-butylpiperazin-1-yl)methanone] gave a negative logarithm of the IC50 (pIC50) of 8.10.
The compound `Nc1nc(N2CC[C@H]2C(=O)N2CCN(c3ccc(F)cc3F)CC2)nc2nc(-c3ccco3)nn12` [Example 112, (S)-(1-(7-amino-2-(furan-2-yl)-[1,2,4]triazolo[1,5-a][1,3,5]triazin-5-yl)azetidin-2-yl)(4-(2,4-difluorophenyl)piperazin-1-yl)methanone] showed a pIC50 of 8.05.
The compound `Nc1nc(N2CCC[C@H]2C(=O)N2CC(Cc3ccccc3)C2)nc2nc(-c3ccco3)nn12` [Example 113, (S)-(1-(7-amino-2-(furan-2-yl)-[1,2,4]triazolo[1,5-a][1,3,5]triazin-5-yl)pyrrolidin-2-yl)(3-benzylazetidin-1-yl)methanone] gave a pIC50 of 8.05.
In turn, `Nc1nc(N2CCC[C@H]2C(=O)N2CC(COc3ccccc3)C2)nc2nc(-c3ccco3)nn12` [Example 114, (S)-(1-(7-amino-2-(furan-2-yl)-[1,2,4]triazolo[1,5-a][1,3,5]triazin-5-yl)pyrrolidin-2-yl)(3-(phenoxymethyl)azetidin-1-yl)methanone] showed a negative logarithm of the IC50 (pIC50) of 8.10.
Compound `CC(C)NC(=O)N1CCN(C(=O)[C@@H]2CCCN2c2nc(N)n3nc(-c4ccco4)nc3n2)CC1` [Example 116, 4-((7-amino-2-(furan-2-yl)-[1,2,4]triazolo[1,5-a][1,3,5]triazin-5-yl)-L-prolyl)-N-isopropylpiperazin-1-carboxamide] showed a negative-log IC50 (pIC50) of 7.96.
Under `Nc1nc(N2CCC[C@H]2C(=O)N2CCN(C(=O)NC3CCCCC3)CC2)nc2nc(-c3ccco3)nn12` [Example 117, 4-((7-amino-2-(furan-2-yl)-[1,2,4]triazolo[1,5-a][1,3,5]triazin-5-yl)-L-prolyl)-N-cyclohexylpiperazin-1-carboxamide] stands 7.96; under `COCCN1CCN(C(=O)[C@H](C)Nc2nc(N)n3nc(-c4ccco4)nc3n2)CC1` [Example 118, (S)-2-((7-amino-2-(furan-2-yl)-[1,2,4]triazolo[1,5-a][1,3,5]triazin-5-yl)amino)-1-(4-(2-methoxyethyl)piperazin-1-yl)propan-1-one], 7.68.
The compound `C[C@H](Nc1nc(N)n2nc(-c3ccco3)nc2n1)C(=O)N1CCN(CC(C)(C)F)CC1` [Example 119, (S)-2-((7-amino-2-(furan-2-yl)-[1,2,4]triazolo[1,5-a][1,3,5]triazin-5-yl)amino)-1-(4-(2-fluoro-2-methylpropyl)piperazin-1-yl)propan-1-one] had a negative logarithm of the IC50 (pIC50) of 8.05. This pIC50 lies 0.37 log units higher than the previous one.
`Nc1nc(N2CCC[C@H]2C(=O)N2CCN(c3ccccc3F)CC2)nc2nc(-c3ccco3)nn12` [Example 120, (S)-(1-(7-amino-2-(furan-2-yl)-[1,2,4]triazolo[1,5-a][1,3,5]triazin-5-yl)pyrrolidin-2-yl)(4-(2-fluorophenyl)piperazin-1-yl)methanone] showed a negative logarithm of the IC50 (pIC50) of 8.22.
Take `Nc1nc(N2CCC[C@H]2C(=O)N2CCN(c3ccc(F)cc3)CC2)nc2nc(-c3ccco3)nn12` [Example 121, (S)-(1-(7-amino-2-(furan-2-yl)-[1,2,4]triazolo[1,5-a][1,3,5]triazin-5-yl)pyrrolidin-2-yl)(4-(4-fluorophenyl)piperazin-1-yl)methanone]: the pIC50 is 8.22.
As to `COc1ccccc1N1CCN(C(=O)[C@@H]2CCCN2c2nc(N)n3nc(-c4ccco4)nc3n2)CC1` [Example 122, (S)-(1-(7-amino-2-(furan-2-yl)-[1,2,4]triazolo[1,5-a][1,3,5]triazin-5-yl)pyrrolidin-2-yl)(4-(2-methoxyphenyl)piperazin-1-yl)methanone], the pIC50 is 7.72.
`CCOC(=O)c1ccc(N2CCN(C(=O)[C@@H]3CCCN3c3nc(N)n4nc(-c5ccco5)nc4n3)CC2)cc1` [Example 123, Ethyl 4-(4-((7-amino-2-(furan-2-yl)-[1,2,4]triazolo[1,5-a][1,3,5]triazin-5-yl)-L-prolyl)piperazin-1-yl)benzoate]: the pIC50 was 9.30.
Consider `Nc1nc(N2CCC[C@H]2C(=O)N2CCN(c3ncccc3C(F)(F)F)CC2)nc2nc(-c3ccco3)nn12` [Example 124, (S)-(1-(7-amino-2-(furan-2-yl)-[1,2,4]triazolo[1,5-a][1,3,5]triazin-5-yl)pyrrolidin-2-yl)(4-(3-(trifluoromethyl)pyridin-2-yl)piperazin-1-yl)methanone], for which the pIC50 was 8.70.
`Nc1nc(N2CCC[C@H]2C(=O)N2CCN(c3nccs3)CC2)nc2nc(-c3ccco3)nn12` [Example 125, 2-(4-((7-amino-2-(furan-2-yl)-[1,2,4]triazolo[1,5-a][1,3,5]triazin-5-yl)-L-prolyl)piperazin-1-yl)thiazole] showed a pIC50 of 8.05.
Then `Nc1nc(N2CCC[C@H]2C(=O)N2CCN(c3cnccn3)CC2)nc2nc(-c3ccco3)nn12` [Example 126, (S)-(1-(7-amino-2-(furan-2-yl)-[1,2,4]triazolo[1,5-a][1,3,5]triazin-5-yl)pyrrolidin-2-yl)(4-(pyrazin-2-yl)piperazin-1-yl)methanone], with 8.05; and `Nc1nc(N2CCC[C@H]2C(=O)N2CCN(c3ncccn3)CC2)nc2nc(-c3ccco3)nn12` [Example 127, (S)-(1-(7-amino-2-(furan-2-yl)-[1,2,4]triazolo[1,5-a][1,3,5]triazin-5-yl)pyrrolidin-2-yl)(4-(pyrimidin-2-yl)piperazin-1-yl)methanone], with 8.52; and `Nc1nc(N2CCC[C@H]2C(=O)N2CCC(c3ccccc3)CC2)nc2nc(-c3ccco3)nn12` [Example 128, (S)-(1-(7-amino-2-(furan-2-yl)-[1,2,4]triazolo[1,5-a][1,3,5]triazin-5-yl)pyrrolidin-2-yl)(4-phenylpiperidin-1-yl)methanone], with 8.52.
On to `CC1CN(C(=O)[C@H](C)Nc2nc(N)n3nc(-c4ccco4)nc3n2)CC(C)N1C(=O)N1CCOCC1` (stereo partly drawn) [Example 129, (2S)-2-((7-amino-2-(furan-2-yl)-[1,2,4]triazolo[1,5-a][1,3,5]triazin-5-yl)amino)-1-(3,5-dimethyl-4-(morpholine-4-carbonyl)piperazin-1-yl)propan-1-one], for which the pIC50 is 8.00.

Usually pIC50 stands for the negative decadic logarithm of the IC50, by convention in mol/L. Low values mean a high IC50, high ones a low IC50.
